Like-named read-outs stand apart in the source and are kept apart here.

Among the data in publication PMC6271649, “Synthesis and Biological Evaluation of Substituted Desloratadines as Potent Arginine Vasopressin V2 Receptor Antagonists” (Molecules, 2014) are IC50 values, retold here.

Assay in all cases: radioligand binding assay
Assay [1] concerns the target T1, human recombinant vasopressin V1a receptor (Homo sapiens, UniProt P37288).
T1 construct: gene AVPR1A; full-length recombinant receptor in 1321N1 host cells (PerkinElmer)
The assay is classed as cell-based. To be noted: read-out: Bingding Assy (IC50; nmol/mL) / V1a. An excerpt: (§1) radioligand binding assay on human recombinant vasopressin V1a receptor

Assay [2] deals with T1, human recombinant vasopressin V1a receptor. To be noted: read-out: Bingding Assy (IC50; nmol/mL) / V1a.
Description: as §1

Assay [3] addresses T2, human recombinant vasopressin V2 receptor (Homo sapiens, UniProt P30518).
T2 construct: gene AVPR2; full-length recombinant receptor in 1321N1 host cells (PerkinElmer)
The assay is classed as cell-based. To be noted: read-out: Bingding Assy (IC50; nmol/mL) / V2. From the text: (§2) radioligand binding assay on human recombinant vasopressin V2 receptor

Assay [4] addresses T2, human recombinant vasopressin V2 receptor. To be noted: read-out: Bingding Assy (IC50; nmol/mL) / V2.
Description: as §2

T2 sequence (P30518 whole entry): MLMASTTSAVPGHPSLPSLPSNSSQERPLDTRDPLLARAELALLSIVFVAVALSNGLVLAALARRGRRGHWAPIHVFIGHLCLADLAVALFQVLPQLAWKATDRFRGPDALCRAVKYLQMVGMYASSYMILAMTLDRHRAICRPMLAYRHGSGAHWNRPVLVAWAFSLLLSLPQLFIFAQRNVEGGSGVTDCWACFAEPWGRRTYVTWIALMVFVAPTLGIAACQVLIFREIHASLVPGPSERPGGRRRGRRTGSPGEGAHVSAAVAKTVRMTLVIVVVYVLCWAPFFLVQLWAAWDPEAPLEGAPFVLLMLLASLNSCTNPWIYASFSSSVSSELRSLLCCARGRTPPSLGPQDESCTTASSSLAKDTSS
T1 sequence (P37288 whole entry): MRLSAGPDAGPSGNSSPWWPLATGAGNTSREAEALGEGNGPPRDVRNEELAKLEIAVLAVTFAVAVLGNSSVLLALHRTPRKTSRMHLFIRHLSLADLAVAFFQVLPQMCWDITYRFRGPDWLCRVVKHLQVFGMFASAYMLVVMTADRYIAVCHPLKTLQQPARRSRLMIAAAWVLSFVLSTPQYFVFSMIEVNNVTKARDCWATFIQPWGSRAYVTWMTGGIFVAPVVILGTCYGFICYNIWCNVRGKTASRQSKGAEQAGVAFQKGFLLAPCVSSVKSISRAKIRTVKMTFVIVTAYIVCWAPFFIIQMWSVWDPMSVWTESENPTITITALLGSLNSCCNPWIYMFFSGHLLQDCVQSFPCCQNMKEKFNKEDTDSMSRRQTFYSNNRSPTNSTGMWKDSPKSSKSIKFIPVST

For `O=C(Nc1cccc(S(=O)(=O)N2CCC(=C3c4ccc(Cl)cc4CCc4cccnc43)CC2)c1)c1ccccc1` [1t, N-(3-((4-(8-Chloro-5H-benzo[5,6]cyclohepta[1,2-b]pyridin-11(6H)-ylidene)piperidin-1-yl)sulfonyl)phenyl)benzamide], in assay [1], the concentration for half-maximal inhibition (IC50) was greater than 1000 nmol/mL. On to `CCCC(=O)Nc1ccc(S(=O)(=O)N2CCC(=C3c4ccc(Cl)cc4CCc4cccnc43)CC2)cc1` [1f, N-(4-((4-(8-Chloro-5H-benzo[5,6]cyclohepta[1,2-b]pyridin-11(6H)-ylidene)piperidin-1-yl)sulfonyl)phenyl)butyramide], for which the half-inhibitory concentration (IC50) amounted to 480 nmol/mL in assay [2] and 40 nmol/mL in assay [3]. Consider `COc1cccc(C(=O)Nc2ccc(C(=O)N3CCC(=C4c5ccc(Cl)cc5CCc5cccnc54)CC3)cc2)c1` [1n, N-(4-(4-(8-Chloro-5H-benzo[5,6]cyclohepta[1,2-b]pyridin-11(6H)-ylidene)piperidine-1-carbonyl)phenyl)-3-methoxybenzamide], for which the IC50 in assay [1] is 390 nmol/mL. In the case of `CCCC(=O)Nc1cccc(S(=O)(=O)N2CCC(=C3c4ccc(Cl)cc4CCc4cccnc43)CC2)c1` [1e, N-(3-((4-(8-Chloro-5H-benzo[5,6]cyclohepta[1,2-b]pyridin-11(6H)-ylidene)piperidin-1-yl)sulfonyl)phenyl)butyramide], the figures for the IC50 in assay [2] and in assay [3] were 176 nmol/mL and 26 nmol/mL, respectively.

As to `Cc1cccc(C(=O)Nc2ccc(C(=O)N3CCC(=C4c5ccc(Cl)cc5CCc5cccnc54)CC3)cc2)c1` [1j, N-(4-(4-(8-Chloro-5H-benzo[5,6]cyclohepta[1,2-b]pyridin-11(6H)-ylidene)piperidine-1-carbonyl)phenyl)-3-methylbenzamide], the IC50 in assay [1] turned out to be 370 nmol/mL.

`O=C(c1ccc(NS(=O)(=O)c2cc(Cl)ccc2Cl)cc1)N1CCC(=C2c3ccc(Cl)cc3CCc3cccnc32)CC1` [1s, 2,5-Dichloro-N-(4-(4-(8-chloro-5H-benzo[5,6]cyclohepta[1,2-b]pyridin-11(6H)-ylidene)piperidine-1-carbonyl)phenyl)benzenesulfonamide]: in assay [1], the IC50 was 320 nmol/mL.

For the molecule `Cc1ccc(S(=O)(=O)Nc2ccc(S(=O)(=O)N3CCC(=C4c5ccc(Cl)cc5CCc5cccnc54)CC3)cc2)cc1` [1y, N-(4-((4-(8-Chloro-5H-benzo[5,6]cyclohepta[1,2-b]pyridin-11(6H)-ylidene)piperidin-1-yl)sulfonyl)phenyl)-4-methylbenzenesulfonamide], the IC50 is 170 nmol/mL in assay [4] and 920 nmol/mL in assay [1].

On to `O=C(Nc1cccc(S(=O)(=O)N2CCC(=C3c4ccc(Cl)cc4CCc4cccnc43)CC2)c1)c1cccc([N+](=O)[O-])c1` [1v, N-(3-((4-(8-Chloro-5H-benzo[5,6]cyclohepta[1,2-b]pyridin-11(6H)-ylidene)piperidin-1-yl)sulfonyl)phenyl)-3-nitrobenzamide], for which the IC50 in assay [1] was 630 nmol/mL. With `O=C(Nc1ccc(C(=O)N2CCC(=C3c4ccc(Cl)cc4CCc4cccnc43)CC2)cc1)c1cccc([N+](=O)[O-])c1` [1o, N-(4-(4-(8-Chloro-5H-benzo[5,6]cyclohepta[1,2-b]pyridin-11(6H)-ylidene)piperidine-1-carbonyl)phenyl)-3-nitrobenzamide], the IC50 in assay [3] came out at 18 nmol/mL; in assay [1], 550 nmol/mL.

For the molecule `O=C(Nc1ccc(S(=O)(=O)N2CCC(=C3c4ccc(Cl)cc4CCc4cccnc43)CC2)cc1)c1cccc(Cl)c1` [1x, 3-Chloro-N-(4-((4-(8-chloro-5H-benzo[5,6]cyclohepta[1,2-b]pyridin-11(6H)-ylidene)piperidin-1-yl)-sulfonyl)phenyl)benzamide], the results for the IC50 in assay [4] and in assay [1] were 310 nmol/mL and greater than 1000 nmol/mL, respectively. As for `O=C(Nc1ccc(C(=O)N2CCC(=C3c4ccc(Cl)cc4CCc4cccnc43)CC2)cc1)c1ccccc1` [1g, N-(4-(4-(8-Chloro-5H-benzo[5,6]cyclohepta[1,2-b]pyridin-11(6H)-ylidene)piperidine-1-carbonyl)phenyl)benzamide], the IC50 was 330 nmol/mL in assay [2] and 19 nmol/mL in assay [3].

`CCCC(=O)Nc1ccc(C(=O)N2CCC(=C3c4ccc(Cl)cc4CCc4cccnc43)CC2)cc1` [1b]: the IC50 in assay [2] was greater than 1000 nmol/mL; in assay [3] it was 47 nmol/mL. `O=C(Nc1ccc(C(=O)N2CCC(=C3c4ccc(Cl)cc4CCc4cccnc43)CC2)cc1)c1ccccc1Cl` [1k, 2-Chloro-N-(4-(4-(8-chloro-5H-benzo[5,6]cyclohepta[1,2-b]pyridin-11(6H)-ylidene)piperidine-1-carbonyl)phenyl)benzamide]: the results for the IC50 in assay [3] and in assay [1] were 27 nmol/mL and 490 nmol/mL, respectively. As for `O=C(CCCCl)Nc1ccc(C(=O)N2CCC(=C3c4ccc(Cl)cc4CCc4cccnc43)CC2)cc1` [1c, 4-Chloro-N-(4-(4-(8-chloro-5H-benzo[5,6]cyclohepta[1,2-b]pyridin-11(6H)-ylidene)piperidine-1-carbonyl)phenyl)butanamide], the IC50 was greater than 1000 nmol/mL in assay [2] and 25 nmol/mL in assay [3].

In the case of `O=C(Nc1cccc(S(=O)(=O)N2CCC(=C3c4ccc(Cl)cc4CCc4cccnc43)CC2)c1)c1cccc(Cl)c1` [1u, 3-Chloro-N-(3-((4-(8-chloro-5H-benzo[5,6]cyclohepta[1,2-b]pyridin-11(6H)-ylidene)piperidin-1-yl)-sulfonyl)phenyl)benzamide], the half-maximal inhibitory concentration (IC50) in assay [4] turned out to be 19 nmol/mL; in assay [1], 840 nmol/mL. Take `O=C(Nc1ccc(C(=O)N2CCC(=C3c4ccc(Cl)cc4CCc4cccnc43)CC2)cc1)c1ccccc1F` [1m, N-(4-(4-(8-Chloro-5H-benzo[5,6]cyclohepta[1,2-b]pyridin-11(6H)-ylidene)piperidine-1-carbonyl)phenyl)-2-fluorobenzamide]: the values for the half-inhibitory concentration (IC50) in assay [3] and in assay [1] were 20 nmol/mL and 170 nmol/mL, respectively. For the molecule `Cc1ccc(S(=O)(=O)Nc2ccc(C(=O)N3CCC(=C4c5ccc(Cl)cc5CCc5cccnc54)CC3)cc2)cc1` [1q, N-(4-(4-(8-Chloro-5H-benzo[5,6]cyclohepta[1,2-b]pyridin-11(6H)-ylidene)piperidine-1-carbonyl)phenyl)-4-methylbenzenesulfonamide], the IC50 is 24 nmol/mL in assay [3] and 720 nmol/mL in assay [1].

As to `CCC(=O)Nc1ccc(C(=O)N2CCC(=C3c4ccc(Cl)cc4CCc4cccnc43)CC2)cc1` [1a], the 50% inhibitory concentration (IC50) in assay [2] turned out to be 130 nmol/mL. `Cc1ccc(S(=O)(=O)Nc2cccc(S(=O)(=O)N3CCC(=C4c5ccc(Cl)cc5CCc5cccnc54)CC3)c2)cc1` [1w, N-(3-((4-(8-Chloro-5H-benzo[5,6]cyclohepta[1,2-b]pyridin-11(6H)-ylidene)piperidin-1-yl)sulfonyl)phenyl)-4-methylbenzenesulfonamide]: the IC50 was 30 nmol/mL in assay [4] and 860 nmol/mL in assay [1].

With `Cc1ccccc1C(=O)Nc1ccc(C(=O)N2CCC(=C3c4ccc(Cl)cc4CCc4cccnc43)CC2)cc1` [1h], the 50% inhibitory concentration (IC50) in assay [3] is 23 nmol/mL; in assay [1], 210 nmol/mL. Regarding `O=C(Nc1ccc(C(=O)N2CCC(=C3c4ccc(Cl)cc4CCc4cccnc43)CC2)cc1)c1ccc([N+](=O)[O-])cc1` [1p, N-(4-(4-(8-Chloro-5H-benzo[5,6]cyclohepta[1,2-b]pyridin-11(6H)-ylidene)piperidine-1-carbonyl)phenyl)-4-nitrobenzamide], the half-inhibitory concentration (IC50) in assay [3] is 52 nmol/mL; in assay [1], greater than 1000 nmol/mL. On the same counts, the results for `Cc1ccc(C(=O)Nc2ccc(C(=O)N3CCC(=C4c5ccc(Cl)cc5CCc5cccnc54)CC3)cc2)cc1` [1i] are 18 nmol/mL and 220 nmol/mL. `O=C(c1ccc(NS(=O)(=O)c2ccccc2Cl)cc1)N1CCC(=C2c3ccc(Cl)cc3CCc3cccnc32)CC1` [1r, 2-Chloro-N-(4-(4-(8-chloro-5H-benzo[5,6]cyclohepta[1,2-b]pyridin-11(6H)-ylidene)piperidine-1-carbonyl)phenyl)benzenesulfonamide]: the IC50 in assay [1] stood at 830 nmol/mL. On to `O=C(Nc1ccc(C(=O)N2CCC(=C3c4ccc(Cl)cc4CCc4cccnc43)CC2)cc1)c1cccc(Cl)c1` [1l, 3-Chloro-N-(4-(4-(8-chloro-5H-benzo[5,6]cyclohepta[1,2-b]pyridin-11(6H)-ylidene)piperidine-1-carbonyl)phenyl)benzamide], for which the IC50 in assay [3] came out at 16 nmol/mL; in assay [1], 560 nmol/mL. For `CCS(=O)(=O)Nc1ccc(C(=O)N2CCC(=C3c4ccc(Cl)cc4CCc4cccnc43)CC2)cc1` [1d, N-(4-(4-(8-Chloro-5H-benzo[5,6]cyclohepta[1,2-b]pyridin-11(6H)-ylidene)piperidine-1-carbonyl)phenyl)ethanesulfonamide], the half-inhibitory concentration (IC50) in assay [2] turned out to be 92 nmol/mL.

As a reminder, the IC50 is the concentration at which inhibition is half-maximal.
